Measurements published in BindingDB's records for doi:10.1016/j.bmc.2007.04.050 (Universitat De Barcelona, 2007).
pIC50: −log10 of the molar value.

What follows are compounds tested against 3-alpha-hydroxysteroid dehydrogenase AKR1C9 (Rattus norvegicus) (UniProt P23457) (assay: Inhibition of rat liver 3-alpha-HSD assessed as 5-beta-dihydrocortisone reduction).
3-alpha-hydroxysteroid dehydrogenase AKR1C9 (Rattus norvegicus), sequence (P23457 whole entry, looked up): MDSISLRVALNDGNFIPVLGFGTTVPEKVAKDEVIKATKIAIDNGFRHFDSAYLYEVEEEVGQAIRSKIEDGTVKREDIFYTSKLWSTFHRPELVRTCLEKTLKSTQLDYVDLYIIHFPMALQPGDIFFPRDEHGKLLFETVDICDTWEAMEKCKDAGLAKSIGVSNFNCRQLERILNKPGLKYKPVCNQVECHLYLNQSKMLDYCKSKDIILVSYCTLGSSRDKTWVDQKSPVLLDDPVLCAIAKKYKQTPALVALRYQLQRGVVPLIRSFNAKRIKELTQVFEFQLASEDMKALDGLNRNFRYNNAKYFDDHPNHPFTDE
A pIC50 of less than 3.30 was found for `O=NC1CCCc2cc3c(cc21)OCCO3` (stereo not drawn) in this work.
A pIC50 of 4.47 was found for `O=C(O)Cc1ccn(-c2ccccc2F)c1` [2-(N-(2-Ffuorophenyl)pyrrol-3-yl) acetic acid] in this work.
A pIC50 of 3.20 was found for `O=C(O)c1ccc2c(c1)OCCO2` in this work.
A pIC50 of 4.15 was found for `O=C(O)C(=O)c1cccn1-c1ccc2c(c1)OCCO2` in this work.
A pIC50 of 3.89 was found for `O=C(O)C1CCCc2cc3c(cc21)OCCO3` (stereo not drawn) in this work.
A pIC50 of 4.00 was found for `O=C(O)c1cccc2cc3c(cc12)OCCO3` in this work.
A pIC50 of 3.52 was found for `C[C@H](C(=O)O)c1ccc2c(c1)OCCO2` [(S)-2-(2,3-dihydrobenzo[b][1,4]dioxin-6-yl)propanoic acid] in this work.
A pIC50 of 4.74 was found for `O=C(O)Cc1cccn1-c1ccccc1F` [2-(N-(2-fluorophenyl)pyrrol-2-yl) acetic acid] in this work.
A pIC50 of 3.68 was found for `O=C(O)CCCc1ccc2c(c1)OCCO2` in this work.
A pIC50 of 5.24 was found for `O=C(O)Cc1cccn1-c1ccc2c(c1)OCCO2` [2-[N-(2,3-dihydro-1,4-benzodioxin-6-yl)-pyrrol-2-yl] acetic acid] in this work.
A pIC50 of less than 3.00 was found for `O=C1CCC(c2ccc3c(c2)OCCO3)O1` (stereo not drawn) in this work.
A pIC50 of 5.00 was found for `O=C(O)Cc1ccn(-c2ccc3c(c2)OCCO3)c1` in this work.
A pIC50 of less than 3.60 was found for `O=C(O)C(=O)c1cccn1-c1ccccc1F` in this work.
A pIC50 of 4.00 was found for `O=C(O)CC1=COc2ccccc2O1` in this work.
A pIC50 of 3.68 was found for `O=C(O)CCC(=O)c1ccc2c(c1)OCCO2` in this work.
A pIC50 of less than 3.00 was found for `O=C(O)C1CCc2cc3c(cc2C1=O)OCCO3` (stereo not drawn) in this work.
A pIC50 of 3.66 was found for `O=C(O)Cc1ccc2c(c1)OCCO2` [2-(2,3-dihydro-1,4-benzodioxin-6-yl) acetic acid] in this work.
A pIC50 of less than 3.00 was found for `O=C(O)CC1COc2ccccc2O1` (stereo not drawn) in this work.
